From patent US10865191B2, “Heterocyclic compounds useful as modulators of TNF alpha” (BRISTOL-MYERS SQUIBB COMPANY, priority 2015, dated 2020) come the findings set out here.

pIC50: −log10 of the molar value. Read-outs that look alike come from different tables or passages of the source.

This assay concerns the target TNFα (Homo sapiens, UniProt P01375). The assay can be described thus: TNF induced HEK-Blue assay (NF-kB-driven secreted alkaline phosphatase reporter). Type of assay: cell-based. Conditions: TNFα 0.5 ng/mL, HEK-Blue-CD40L cells, 18 h. The essentials:
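HEK-Blue-CD40L cells (NF-kB-driven SEAP reporter), 20,000/well, added after 30 min pre-incubation of compound (0.004–25 μM final) with TNFα 0.5 ng/mL final at 37 °C; 18 h incubation. SEAP read with QUANTI-Blue at 620 nm; IC50 from 4-parameter logistic fit, normalized to unstimulated and stimulated DMSO controls.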

Where [1] appears, read: read-out: TNF induced HEK-Blue assay IC50 value.

Sequence of TNFα (P01375 77-233 limits assumed): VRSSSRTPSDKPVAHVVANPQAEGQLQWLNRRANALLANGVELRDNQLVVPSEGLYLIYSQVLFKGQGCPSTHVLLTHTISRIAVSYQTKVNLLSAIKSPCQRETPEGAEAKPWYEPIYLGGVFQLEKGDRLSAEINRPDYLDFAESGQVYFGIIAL

Take `O=C(O)[C@@H]1CN(c2ncc(-c3ccc4ncc(Cl)c(N[C@@H](c5ccccc5F)C(F)F)c4c3)cn2)CCN1` [Example 74, (S)-4-(5-(3-chloro-4-(((S)-2,2-difluoro-1-(2-fluorophenyl)ethyl)amino)quinolin-6-yl)pyrimidin-2-yl)piperazine-2-carboxylic acid]: the pIC50 under setting [1] was 5.00 to 6.00.

`Cc1nc2ccc(-c3ccc(C(C)(C)O)cc3)cc2c(NC(C)c2ccccc2F)c1Cl` (racemic) [Example 308, 2-(4-(3-chloro-4-((1-(2-fluorophenyl)ethyl)amino)-2-methylquinolin-6-yl)phenyl) propan-2-ol]: the negative logarithm of the IC50 (pIC50) under setting [1] is over 6.00.

For `C[C@@H](Nc1c(Cl)cnc2cc(F)c(-c3cnc(N4CCC(C(C)(C)O)C4)nc3)cc12)c1ccccc1F` (mixture of isomers) [Example 283, 2-(1-(5-(3-chloro-7-fluoro-4-(((R)-1-(2-fluorophenyl)ethyl)amino)quinolin-6-yl)pyrimidin-2-yl)pyrrolidin-3-yl)propan-2-ol], the pIC50 under setting [1] was over 6.00. The same measure, in the same setting: then `Cc1nc2cc(F)c(-c3cnc(C(C)(C)O)nc3)cc2c(N[C@H](C)c2cc(CCC(N)=O)ccc2F)c1Cl` [Example 445, (R)-3-(3-(1-((3-chloro-7-fluoro-6-(2-(2-hydroxypropan-2-yl)pyrimidin-5-yl)-2-methylquinolin-4-yl)amino)ethyl)-4-fluorophenyl)propanamide], with over 6.00; and `CC(Nc1c(Cl)cnc2c(Cl)cc(-c3ccc(C(C)(C)O)cc3)cc12)c1ccccc1F` (racemic) [Example 21, 2-(4-(3,8-dichloro-4-((1-(2-fluorophenyl)ethyl)amino)quinolin-6-yl)phenyl)propan-2-ol], with 5.00 to 6.00; and `CC(Nc1c(Cl)cnc2cc(F)c(-c3cnc(N4CCC(O)C4)cn3)cc12)c1ccccc1F` (stereo not drawn) [Example 284, 1-(5-(3-chloro-7-fluoro-4-((1-(2-fluorophenyl)ethyl)amino)quinolin-6-yl)pyrazin-2-yl)pyrrolidin-3-ol], with 5.00 to 6.00. As to `Cc1ccc(C)c(Nc2c(Cl)c(N)nc3ccc(-c4cnc(NCC(O)CO)nc4)cc23)c1` (racemic) [Example 73, 3-((5-(2-amino-3-chloro-4-((2,5-dimethylphenyl)amino)quinolin-6-yl)pyrimidin-2-yl)amino)propane-1,2-diol], the pIC50 under setting [1] is 5.00 to 6.00. Turning to `Cc1ccc(C)c(Nc2c(Cl)c(C)nc3ccc(-c4ccc(C(=O)NCCCCN)nc4)cc23)c1` [Example 65, N-(4-aminobutyl)-5-(3-chloro-4-((2,5-dimethylphenyl)amino)-2-methylquinolin-6-yl) picolinamide], the pIC50 under setting [1] was 5.00 to 6.00. As for `CC(Nc1c(Cl)cnc2ccc(-c3ccc(C(C)(C)O)cc3)cc12)c1nc(C(N)=O)ccc1F` (racemic) [Example 27, 6-(1-((3-chloro-6-(4-(2-hydroxypropan-2-yl)phenyl)quinolin-4-yl)amino)ethyl)-5-fluoropicolinamide], the pIC50 under setting [1] was over 6.00.

Take `Cc1ccc(Br)cc1Nc1c(Cl)c(C)nc2ccccc12` [Example 470, N-(5-bromo-2-methylphenyl)-3-chloro-2-methylquinolin-4-amine]: the pIC50 under setting [1] is 4.60 to 5.00. For the compound `C[C@@H](Nc1c(Cl)cnc2ccc(-c3cnc(C(C)(C)O)nc3)cc12)c1cc(S(N)(=O)=O)ccc1F` [Example 426, (R)-3-(1-((3-chloro-6-(2-(2-hydroxypropan-2-yl)pyrimidin-5-yl)quinolin-4-yl)amino)ethyl)-4-fluorobenzenesulfonamide], the negative-log IC50 (pIC50) under setting [1] was over 6.00.

With `CC(C)(O)CNc1ncc(-c2ccc3ncc(Cl)c(N[C@@H](c4ccccc4F)C(F)F)c3c2)cn1` [Example 80, (S)-1-((5-(3-chloro-4-((2,2-difluoro-1-(2-fluorophenyl)ethyl)amino)quinolin-6-yl)pyrimidin-2-yl)amino)-2-methylpropan-2-ol], under setting [1], the negative-log IC50 (pIC50) was over 6.00. Take `C[C@@H](Nc1c(Cl)cnc2ccc(-c3cnn(C)c3)cc12)c1cc(-c2cncnc2)ccc1F` [Example 550, (R)-3-chloro-N-(1-(2-fluoro-5-(pyrimidin-5-yl)phenyl)ethyl)-6-(1-methyl-1H-pyrazol-4-yl)quinolin-4-amine]: under setting [1], the pIC50 was over 6.00. Turning to `Cc1nc2ccc(-c3cnc(C(C)(C)O)nc3)cc2c(N[C@H](C)c2cc(Cc3ccccc3)ccc2F)c1Cl` [Example 396, (R)-2-(5-(4-((1-(5-benzyl-2-fluorophenyl)ethyl)amino)-3-chloro-2-methylquinolin-6-yl)pyrimidin-2-yl)propan-2-ol], the pIC50 under setting [1] was over 6.00. Consider `C[C@@H](Nc1c(Cl)cnc2ccc(-c3cnc(C(C)(C)O)nc3)cc12)c1cc(C=NO)ccc1F` [Example 424, (R)-3-(1-((3-chloro-6-(2-(2-hydroxypropan-2-yl)pyrimidin-5-yl)quinolin-4-yl)amino)ethyl)-4-fluorobenzaldehyde oxime], for which the negative-log IC50 (pIC50) under setting [1] was over 6.00. `Cc1nc2ccc(-c3cnc(C(C)(C)O)nc3)cc2c(N[C@H](C)c2cccc(C#N)c2)c1Cl` [Example 386, (R)-3-(1-((3-chloro-6-(2-(2-hydroxypropan-2-yl)pyrimidin-5-yl)-2-methylquinolin-4-yl)amino)ethyl)benzonitrile]: the pIC50 under setting [1] is over 6.00. On to `C=CC(=O)N(C)c1ncc(-c2ccc3ncc(Cl)c(N[C@H](C)c4ccccc4F)c3c2)cn1` [Example 124, (R)—N-(5-(3-chloro-4-((1-(2-fluorophenyl)ethyl)amino)quinolin-6-yl)pyrimidin-2-yl)-N-methylacrylamide], for which the negative logarithm of the IC50 (pIC50) under setting [1] was over 6.00. On to `Cc1nc2ccc(-c3cnc(N4CCN(CC(=O)O)CC4)nc3)cc2c(NC(C)c2ccccc2F)c1Cl` (racemic) [Example 309, 2-(4-(5-(3-chloro-4-((1-(2-fluorophenyl)ethyl)amino)-2-methylquinolin-6-yl)pyrimidin-2-yl)piperazin-1-yl)acetic acid], for which, under setting [1], the pIC50 was over 6.00. Same read-out and setting: then `Cc1nc2ccc(-c3cnc(C(C)(C)O)nc3)cc2c(N[C@H](C)c2cc(CC(=O)O)ccc2F)c1Cl` [Example 436, (R)-2-(3-(1-((3-chloro-6-(2-(2-hydroxypropan-2-yl)pyrimidin-5-yl)-2-methylquinolin-4-yl)amino)ethyl)-4-fluorophenyl)acetic acid], with over 6.00; and `CC(Nc1c(Cl)cnc2ccc(-c3ccc(C(C)(C)O)cc3)cc12)c1cncs1` (racemic) [Example 211, 2-(4-(3-chloro-4-((1-(thiazol-5-yl)ethyl)amino)quinolin-6-yl)phenyl)propan-2-ol], with over 6.00; and `CC(C)(O)c1ncc(-c2ccc3ncc(Cl)c(NC4(c5ccccc5F)CC4)c3c2)cn1` [Example 158, 2-(5-(3-chloro-4-((1-(2-fluorophenyl)cyclopropyl)amino)quinolin-6-yl)pyrimidin-2-yl)propan-2-ol], with over 6.00. As for `CC(Nc1c(Cl)cnc2cc(F)c(-c3cnc(C4(O)CCS(=O)(=O)CC4)nc3)cc12)c1ccccc1F` (stereo not drawn) [Example 289, 4-(5-(3-chloro-7-fluoro-4-((1-(2-fluorophenyl)ethyl)amino)quinolin-6-yl)pyrimidin-2-yl)-4-hydroxytetrahydro-2H-thiopyran 1,1-dioxide], the negative logarithm of the IC50 (pIC50) under setting [1] was over 6.00. Take `COc1ccc(F)c([C@@H](C)Nc2c(Cl)c(C)nc3ccc(Br)cc23)c1` [Example 328, (R)-6-bromo-3-chloro-N-(1-(2-fluoro-5-methoxyphenyl)ethyl)-2-methylquinolin-4-amine]: the pIC50 under setting [1] was 5.00 to 6.00. The same measure, in the same setting: then `Cc1ccc(C)c(Nc2c(Cl)c(N)nc3ccc(-c4cnc(NC(CO)CO)nc4)cc23)c1` [Example 71, 2-((5-(2-amino-3-chloro-4-((2,5-dimethylphenyl)amino)quinolin-6-yl)pyrimidin-2-yl)amino)propane-1,3-diol], with over 6.00. In the case of `CC(C)(O)c1ncc(-c2ccc3ncc(Cl)c(NC(c4ccccc4F)C(C)(C)O)c3c2)cn1` (racemic) [Example 49, 1-((3-chloro-6-(2-(2-hydroxypropan-2-yl)pyrimidin-5-yl)quinolin-4-yl)amino)-1-(2-fluorophenyl)-2-methylpropan-2-ol], the pIC50 under setting [1] was over 6.00. With `Cc1ccc(F)c([C@@H](C)Nc2c(Cl)c(C)nc3ccc(-c4cnc(C(C)(C)O)nc4)cc23)c1` [Example 334, (R)-2-(5-(3-chloro-4-((1-(2-fluoro-5-methylphenyl)ethyl)amino)-2-methylquinolin-6-yl)pyrimidin-2-yl)propan-2-ol], under setting [1], the negative-log IC50 (pIC50) was over 6.00. `CC(Nc1c(Cl)cnc2ccc(-c3cnc(C(C)(C)O)nc3)cc12)c1cccc(F)c1` (racemic) [Example 155, 2-(5-(3-chloro-4-((1-(3-fluorophenyl)ethyl)amino)quinolin-6-yl)pyrimidin-2-yl)propan-2-ol] showed a pIC50 (TNF induced HEK-Blue assay IC50 value) of 5.00 to 6.00. For `C[C@@H](Nc1c(Cl)cnc2ccc(-c3cnc(C(C)(C)O)nc3)cc12)c1cc(-c2cccnc2)ccc1F` [Example 553, (R)-2-(5-(3-chloro-4-((1-(2-fluoro-5-(pyridin-3-yl)phenyl)ethyl)amino)quinolin-6-yl)pyrimidin-2-yl)propan-2-ol], the negative logarithm of the IC50 (pIC50) under setting [1] was over 6.00.

For `CC(Nc1c(Cl)cnc2ccc(-c3ccc(C(C)(C)O)cc3)cc12)c1cnsc1` (racemic) [Example 172, 2-(4-(3-chloro-4-((1-(isothiazol-4-yl)ethyl)amino)quinolin-6-yl)phenyl)propan-2-ol], the negative logarithm of the IC50 (pIC50) under setting [1] was 4.60 to 5.00. As for `Cc1nc2ccc(-c3cnc(C(C)(C)O)nc3)cc2c(N[C@H](C)c2cc(N3CCNC3=O)ccc2F)c1Cl` [Example 373, (R)-1-(3-(1-((3-chloro-6-(2-(2-hydroxypropan-2-yl)pyrimidin-5-yl)-2-methylquinolin-4-yl)amino)ethyl)-4-fluorophenyl)imidazolidin-2-one], the negative logarithm of the IC50 (pIC50) under setting [1] was over 6.00.
